Among the test systems are OVCAR-8; RXF 393; HCT-15; SK-MEL-2; IGROV-1; SNB-78; HOP-62; SK-MEL-5; COLO 205; TK-10; M19-MEL; CAKI-1; HT-29; SK-OV-3; SF-268; M14; SR; HOP-18; Hs-578T; MDA-N.
Common to all, as to test: growth of human tumour cells (NCI), 48 h

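1) Cells in 96-well plates. 2) Compound, 48 h, 5 concentrations. 3) Linear interpolation between surrounding doses. 4) Unreached endpoint = highest concentration. Here, GI50 denotes the concentration required for 50% inhibition of growth.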 The source made the active and inactive calls. Cut-off read from the data, not from the text of the source: active = GI50 up to about 1.1 µM and inactive = higher. Non-standard residues stand in square brackets, D forms with d. Residues, ends and D or L forms follow the SMILES beside them. ξ: configuration not given here. ξLac(3-iPr) = CC(C)CC(O)C(=O)O; NMeV = CN[CH](C(=O)O)C(C)C; NMeA = CN[CH](C)C(=O)O; βAla = NCCC(=O)O

With `COc1ccc(C(=O)Nc2ccccc2)cc1[N+](=O)[O-]`, the GI50 is > 100 µM (inactive) in the assay on OVCAR-8; 76.7 µM (inactive) with RXF 393; above 100 µM in the assay on HCT-15; > 100 µM (inactive) with SK-MEL-2; > 100 µM (inactive) with IGROV-1; > 100 µM (inactive) in the assay with SNB-78. For the same compound, the GI50 was > 100 µM (inactive) in the assay on HOP-62; 31.5 µM (inactive) in the assay on SK-MEL-5; > 100 µM (inactive) in the assay on COLO 205; > 100 µM (inactive) with TK-10; > 100 µM (inactive) with M19-MEL; > 100 µM (inactive) with CAKI-1. Moreover, the GI50 was 70.3 µM (inactive) in the assay on HT-29, > 100 µM (inactive) in the assay with SK-OV-3, > 100 µM (inactive) in the assay on SF-268 and > 100 µM (inactive) with M14.
Consider `Cc1cc(C)nc(NS(=O)(=O)c2ccc(NC(=O)c3cccn4c(=O)c5ccccc5nc34)cc2)n1`, for which the GI50 in the assay with OVCAR-8 is 27.7 µM (inactive); in the assay on RXF 393, 23.9 µM (inactive); with HCT-15, 31 µM; in the assay with SK-MEL-2 it was > 100 µM (inactive); in the assay with IGROV-1, > 100 µM (inactive); with SNB-78, 39.4 µM (inactive). Further, the GI50 was > 100 µM (inactive) with HOP-62; 37.9 µM (inactive) with SK-MEL-5; 40.6 µM (inactive) in the assay on COLO 205; > 100 µM (inactive) with TK-10; 31.6 µM (inactive) in the assay on M19-MEL; 24 µM (inactive) in the assay with SR. The GI50 with HT-29 was 40.2 µM (inactive); in the assay on SF-268 it was 51.1 µM (inactive); in the assay with M14, 50.7 µM (inactive).
Consider `CC(NS(=O)(=O)c1ccc([N+](=O)[O-])cc1)C(=O)O` (stereo not given), for which the GI50 is > 100 µM (inactive) in the assay with OVCAR-8; > 100 µM (inactive) with RXF 393; above 100 µM with HCT-15; > 100 µM (inactive) in the assay on SK-MEL-2; > 100 µM (inactive) in the assay with HOP-18; > 100 µM (inactive) in the assay with IGROV-1. Besides, the GI50 with SK-MEL-5, in the assay with COLO 205, in the assay with TK-10, with CAKI-1, with HT-29 and in the assay with SK-OV-3 was > 100 µM (inactive) throughout. The GI50 in the assay with SF-268 and with M14 was > 100 µM (inactive) each time.
For the compound `CC(=O)N1CCN(C=S)CC1`, the GI50 in the assay with OVCAR-8 is > 100 µM (inactive); in the assay on RXF 393, > 100 µM (inactive); with HCT-15, above 100 µM; in the assay on IGROV-1 it was > 100 µM (inactive); in the assay with SNB-78, > 100 µM (inactive); in the assay with HOP-62, > 100 µM (inactive). Further, the GI50 in the assay with SK-MEL-5, in the assay on COLO 205, in the assay with TK-10, in the assay on M19-MEL, with SR and in the assay on CAKI-1 was > 100 µM (inactive) each time. Further, the GI50 in the assay on HT-29, with SK-OV-3, with SF-268 and in the assay with M14 was > 100 µM (inactive) each time.
Regarding `CCOC1=C2N=C(C(CC)c3ccc(F)cc3)N=C2C(=O)c2ccccc21` (stereo not given), the GI50 is 30.5 µM (inactive) in the assay with OVCAR-8; 11.6 µM (inactive) with RXF 393; 18.6 µM in the assay on HCT-15; 18.7 µM (inactive) with SK-MEL-2; 23.5 µM (inactive) with IGROV-1; 27.8 µM (inactive) with SNB-78. For the same compound, the GI50 in the assay on HOP-62 was 46.3 µM (inactive); in the assay on SK-MEL-5, 13.9 µM (inactive); in the assay on COLO 205, 22.3 µM (inactive); in the assay on TK-10 it was 22 µM (inactive); in the assay with M19-MEL, 24 µM (inactive); in the assay on SR, 21.3 µM (inactive). The GI50 in the assay with CAKI-1 is 22 µM (inactive); with HT-29, 19.2 µM (inactive); with SK-OV-3 it was 32.1 µM (inactive); with SF-268 it was 19.7 µM (inactive); with M14, 26 µM (inactive).
As for `CC1Cc2cc(O)c(O)cc2-c2cc(O)c(O)cc2CC1C` (stereo not given), the GI50 with OVCAR-8 is 23.3 µM (inactive); in the assay on RXF 393, 18.1 µM (inactive); in the assay on Hs-578T it was 9.04 µM (inactive); in the assay on HCT-15, 9.29 µM; in the assay with SK-MEL-2 it was 4.32 µM (inactive); in the assay with IGROV-1 it was 20.4 µM (inactive). For the same compound, the GI50 with HOP-62 was 17.9 µM (inactive); with MDA-N it was 3.07 µM (inactive); in the assay on SK-MEL-5 it was 4.81 µM (inactive); with COLO 205, 17.8 µM (inactive); with TK-10 it was 26.4 µM (inactive); with SR, 4.85 µM (inactive). For the same compound, the GI50 with CAKI-1 is 17.8 µM (inactive); in the assay on HT-29, 24 µM (inactive); in the assay on SK-OV-3, 36.8 µM (inactive); in the assay with SF-268, 25.9 µM (inactive); in the assay on M14, 11.5 µM (inactive).
Consider `Cc1ccc(/C=C/C(=O)c2cccc3ccccc23)cc1`, for which the GI50 with OVCAR-8 is 14.5 µM (inactive); in the assay on RXF 393 it was 12.7 µM (inactive); in the assay on HCT-15, 19.1 µM; in the assay on SK-MEL-2, 18.5 µM (inactive); in the assay on IGROV-1, > 10 µM (inactive); in the assay with SNB-78, 14.8 µM (inactive). Further, the GI50 in the assay with HOP-62 was 20.7 µM (inactive); with SK-MEL-5 it was > 10 µM (inactive); in the assay with COLO 205, 20.5 µM (inactive); in the assay on TK-10 it was 15.2 µM (inactive); in the assay with M19-MEL, 21.2 µM (inactive); with SR it was 11.3 µM (inactive). The GI50 is 16.4 µM (inactive) in the assay on CAKI-1; 18.2 µM (inactive) with HT-29; 24.4 µM (inactive) in the assay on SK-OV-3; 16.2 µM (inactive) with SF-268; 19.3 µM (inactive) in the assay on M14.
For `CCCCCC(=O)C(C)C1=Nc2nnc(CCCCCCCc3nnc4n3C(=O)C(C(C)C(=O)CCCCC)=N4)n2C1=O` (stereo not given), the GI50 was > 100 µM (inactive) in the assay with OVCAR-8; > 100 µM (inactive) with RXF 393; above 100 µM with HCT-15; > 100 µM (inactive) in the assay with HOP-18; > 100 µM (inactive) in the assay with IGROV-1; > 100 µM (inactive) in the assay on HOP-62. For the same compound, the GI50 in the assay on SK-MEL-5, with COLO 205, in the assay on TK-10, in the assay with M19-MEL, in the assay with SR and with CAKI-1 was > 100 µM (inactive) throughout. Also, the GI50 in the assay with HT-29, with SK-OV-3, in the assay with SF-268 and in the assay on M14 was > 100 µM (inactive) throughout.
Regarding `Clc1ccc(C2=Nc3ccccc3SC(c3ccc(Cl)c(Cl)c3)C2)c(Cl)c1` (stereo not given), the GI50 in the assay with OVCAR-8 was 15.3 µM (inactive); in the assay on RXF 393 it was 15.6 µM (inactive); in the assay on HCT-15 it was 9.71 µM; with SK-MEL-2, 17.4 µM (inactive); in the assay on IGROV-1 it was 14.7 µM (inactive); in the assay on SNB-78 it was 18.3 µM (inactive). Besides, the GI50 in the assay with HOP-62 is 12.6 µM (inactive); in the assay on SK-MEL-5 it was 18 µM (inactive); in the assay on COLO 205, 18.5 µM (inactive); with TK-10, 20.6 µM (inactive); in the assay with M19-MEL it was 16 µM (inactive); in the assay with CAKI-1 it was 13.5 µM (inactive). Further, the GI50 is 11.4 µM (inactive) in the assay on HT-29, 28.1 µM (inactive) in the assay with SK-OV-3, 13.2 µM (inactive) in the assay on SF-268 and 16 µM (inactive) in the assay on M14.
`CCCN(CCC)C(=O)c1c([N+](=O)[O-])cc(C(F)(F)F)cc1[N+](=O)[O-]`: the GI50 in the assay on OVCAR-8 was 39.1 µM (inactive); with RXF 393 it was 26.2 µM (inactive); in the assay with HCT-15 it was 27 µM; with SK-MEL-2, 39.4 µM (inactive); in the assay with IGROV-1 it was 58.2 µM (inactive); in the assay on SNB-78 it was 35.2 µM (inactive). For the same compound, the GI50 in the assay on HOP-62 is > 100 µM (inactive); in the assay with COLO 205, 15.4 µM (inactive); in the assay with TK-10, > 100 µM (inactive); in the assay on M19-MEL, 13.7 µM (inactive); in the assay on SR, 51.3 µM (inactive); in the assay with CAKI-1, 60.7 µM (inactive). The GI50 with HT-29 was 32.5 µM (inactive); in the assay with SK-OV-3 it was > 100 µM (inactive); in the assay with SF-268, > 100 µM (inactive); in the assay with M14 it was 22.5 µM (inactive).
Take `COc1ccc(C2=NC(CO)[C@H](c3ccccc3)O2)cc1OC` (stereo not given in full): the GI50 in the assay with OVCAR-8 was > 100 µM (inactive); in the assay with HCT-15, above 100 µM; in the assay on SK-MEL-2 it was > 100 µM (inactive); in the assay with IGROV-1 it was > 100 µM (inactive); in the assay on HOP-62, > 100 µM (inactive); with SK-MEL-5 it was > 100 µM (inactive). Moreover, the GI50 in the assay with COLO 205 is > 100 µM (inactive); in the assay on M19-MEL, > 100 µM (inactive); in the assay with CAKI-1 it was > 100 µM (inactive); in the assay on HT-29, > 100 µM (inactive); in the assay with SK-OV-3 it was 96.4 µM (inactive); with SF-268, > 100 µM (inactive). For the same compound, in the assay with M14, the GI50 is > 100 µM (inactive).
`CCC(C)C1NC(=O)C2CCCN2C(=O)C(CC(C)C)OC(=O)CCNC(=O)C(C)N(C)C(=O)C(C(C)C)N(C)C1=O` (stereo not given) (cyclo([ξLac(3-iPr)]PI[NMeV][NMeA][βAla]); configuration not given here): the GI50 in the assay with OVCAR-8 was 3.48 µM (inactive); with RXF 393, 3.83 µM (inactive); with Hs-578T it was 23.2 µM (inactive); in the assay with HCT-15 it was 4.57 µM; with SK-MEL-2 it was 2.42 µM (inactive); in the assay on IGROV-1, 5.83 µM (inactive). Moreover, the GI50 in the assay with HOP-62 was 2.77 µM (inactive); in the assay on MDA-N, 2.61 µM (inactive); with SK-MEL-5, 1.21 µM (inactive); in the assay on COLO 205, 3.61 µM (inactive); in the assay with TK-10 it was 23.2 µM (inactive); in the assay with SR, 0.766 µM (active). Moreover, the GI50 in the assay with CAKI-1 is 6.95 µM (inactive); in the assay on HT-29, 1.32 µM (inactive); in the assay with SK-OV-3, 20.6 µM (inactive); in the assay with SF-268, 6 µM (inactive); in the assay with M14, 1.91 µM (inactive).

For the origin of these results see ChEMBL document CHEMBL1201862, “PubChem BioAssay data set” (2004).
